One may read the mass density as mass per unit of volume. The term viscosity denotes the internal friction of a fluid under shear. Usually refractive index stands for the speed of light in vacuum divided by its phase velocity in the sample.

± gives the expanded uncertainty stated by the source.

For data set [1] the following is noted: for mass density / viscosity: 101.33 kPa, Liquid; for mass density: Vibrating tube method; for viscosity: Falling or rolling sphere viscometry.
Data set [2] in a line: refractive index (Na D-line) (dimensionless). As to conditions: 101.33 kPa, Liquid, Standard Abbe refractometry.

With `CCCC[n+]1cccc(C#N)c1.O=S(=O)([N-]S(=O)(=O)C(F)(F)F)C(F)(F)F` [1-butyl-3-cyanopyridinium bis(trifluoromethylsulfonyl)imide], the mass density in data set [1] (298.15 K) stood at 1479.79 ± 2.1 kg/m3.
In the case of `CCCC[n+]1ccc(C#N)cc1.O=S(=O)([N-]S(=O)(=O)C(F)(F)F)C(F)(F)F` [1-butyl-4-cyanopyridinium bis(trifluoromethylsulfonyl)imide], the mass density is reported as 1492.99 ± 2.1 kg/m3 in data set [1] (278.15 K); 1483.58 ± 2.1 kg/m3 in data set [1] (288.15 K); 1474.23 ± 2.1 kg/m3 in data set [1] (298.15 K); 1465.05 ± 2 kg/m3 in data set [1] (308.15 K); 1455.88 ± 2 kg/m3 in data set [1] (318.15 K); 1446.76 ± 2 kg/m3 in data set [1] (328.15 K). In addition, the mass density worked out at 1437.73 ± 2 kg/m3 in data set [1] (338.15 K), 1428.78 ± 2 kg/m3 in data set [1] (348.15 K) and 1419.9 ± 1.9 kg/m3 in data set [1] (358.15 K). In addition, the viscosity turned out to be 250.45 ± 14 mPa·s in data set [1] (308.15 K); 138.28 ± 5.4 mPa·s in data set [1] (318.15 K); 83.59 ± 2.3 mPa·s in data set [1] (328.15 K); 54.47 ± 1.2 mPa·s in data set [1] (338.15 K); 37.59 ± 0.89 mPa·s in data set [1] (348.15 K); 27.24 ± 0.65 mPa·s in data set [1] (358.15 K). Besides, the Glass transition temperature in data set [1] (Glass, DTA) was -54 ± 3.8 °C.
On to `CCCO` [propan-1-ol], for which, in data set [2] (298.15 K), the refractive index is 1.38375 ± 0.00068. Moreover, the mass density in data set [1] (298.15 K) came to 799.52 ± 1 kg/m3.
For the compound `c1ccc2sccc2c1` [benzo[b]thiophene], the refractive index in data set [2] (310.15 K) came to 1.638 ± 0.0007. In addition, the mass density in data set [1] (308.15 K) worked out at 1150.55 ± 1.1 kg/m3; in data set [1] (310.15 K), 1149.31 ± 1.1 kg/m3; in data set [1] (313.15 K), 1146.05 ± 1.1 kg/m3; in data set [1] (318.15 K), 1141.56 ± 1.1 kg/m3; in data set [1] (323.15 K), 1137.07 ± 1.1 kg/m3; in data set [1] (328.15 K), 1132.58 ± 1.1 kg/m3. For the same compound, the mass density in data set [1] (333.15 K) was found to be 1128.08 ± 1.1 kg/m3; in data set [1] (338.15 K), 1123.59 ± 1 kg/m3; in data set [1] (343.15 K) it was 1119.1 ± 1 kg/m3; in data set [1] (348.15 K) it was 1114.61 ± 1 kg/m3; in data set [1] (353.15 K), 1110.11 ± 1 kg/m3; in data set [1] (358.15 K), 1105.61 ± 1 kg/m3. Moreover, the mass density in data set [1] (363.15 K) is listed as 1101.11 ± 1 kg/m3.
For the compound `c1ccsc1` [thiophene], in data set [2] (298.15 K), the refractive index worked out at 1.52527 ± 0.0007. Besides, the mass density in data set [1] (298.15 K) is given as 1058.64 ± 1 kg/m3.
In the same order, the values of `CCCCCCC` [heptane] are 1.38519 ± 0.00068 and 679.48 ± 1 kg/m3.
As to `CC(C)=O` [acetone], in data set [2] (298.15 K), the refractive index was found to be 1.356 ± 0.0007. The mass density in data set [1] (298.15 K) was 785.23 ± 1 kg/m3.
Take `CCCCCC[n+]1ccc(C#N)cc1.O=S(=O)([N-]S(=O)(=O)C(F)(F)F)C(F)(F)F` [1-hexyl-4-cyanopyridinium bis(trifluoromethylsulfonyl)imide]: the mass density in data set [1] (298.15 K) is on record as 1407 ± 1.9 kg/m3.

These data come from the NIST ThermoML archive (doi:10.1016/j.jct.2013.09.032).
